Laboratory results published in DBAASP.
Values after ≈ are worked out from the molar mass of the structure shown. Values joined by “and” are separate entries in the source; they are usually repeats but may differ in a detail not shown here. Identical values can stand only once.

Experiments:
Assay in all cases: ≥ marks a high value that may be exact or a test limit, other limits are often not marked, values filed in µg/mL are converted to µM
Streptococcus mutans = system: Streptococcus mutans
[1] = system: Staphylococcus aureus USA 300
[2] = system: Klebsiella pneumoniae ATCC 13883
[3] = system: Escherichia coli ATCC 25922
[4] = system: Pseudomonas aeruginosa PAO1
[5] = system: Escherichia coli NCTC 10418
Salmonella typhimurium = system: Salmonella typhimurium
Staphylococcus aureus = system: Staphylococcus aureus
Bacillus subtilis = system: Bacillus subtilis
Escherichia coli = system: Escherichia coli
Staphylococcus aureus MR = system: Staphylococcus aureus MR
[6] = system: Candida albicans ATCC 90028
Acinetobacter baumannii = system: Acinetobacter baumannii
[7] = system: Staphylococcus aureus ATCC 29213
[8] = system: Pseudomonas aeruginosa ATCC 27853
[9] = system: Staphylococcus aureus ATCC 25923
[10] = system: Acinetobacter baumannii ATCC 19606
Pseudomonas aeruginosa = system: Pseudomonas aeruginosa
Enterococcus faecium = system: Enterococcus faecium
Klebsiella pneumoniae = system: Klebsiella pneumoniae
[11] = system: Salmonella enterica subsp. enterica serovar Typhimurium ATCC 14028
[12] = system: Staphylococcus epidermidis ATCC 12228
[13] = system: Salmonella enterica subsp. enterica serovar Typhimurium C77-31
[14] = system: Enterococcus faecalis ATCC 29212
Escherichia coli UB1005 = system: Escherichia coli UB1005
[15] = system: Salmonella enterica subsp. enterica serovar Pullorum C79-13

Molecule `C[C@H](N)C(=O)N[C@@H](CCC(N)=O)C(=O)N[C@@H](C)C(=O)N[C@@H](C)C(=O)N[C@@H](CCCCN)C(=O)N[C@@H](CCC(N)=O)C(=O)N[C@@H](C)C(=O)N[C@@H](C)C(=O)N[C@@H](CCCCN)C(=O)N[C@@H](C)C(=O)N[C@@H](C)C(=O)N[C@@H](CCCCN)C(=O)N[C@@H](CCC(N)=O)C(=O)N[C@@H](Cc1ccccc1)C(N)=O` [AQAAKQAAKAAKQF] has an MIC (Streptococcus mutans) of no less than 87.3 µM.
`CC(C)C[C@H](NC(=O)[C@H](CC(C)C)NC(=O)[C@H](CCCCN)NC(=O)CNC(=O)[C@H](CC(C)C)NC(=O)[C@H](CC(C)C)NC(=O)[C@H](CO)NC(=O)[C@H](CC(C)C)NC(=O)[C@H](CC(C)C)NC(=O)[C@H](CO)NC(=O)[C@H](CC(C)C)NC(=O)[C@H](C)NC(=O)CN)C(N)=O` [GALSLLSLLGKLL] was tested, and the MIC [1] was 0.78 µM (≈ 1.01 µg/mL), the MIC [2] was 6.2 µM (≈ 8.04 µg/mL) and the MIC [3] was 3.1 µM (≈ 4.02 µg/mL). For the same molecule, the MIC [4] was 12.5 µM (≈ 16.2 µg/mL).
Work on `C[C@H](NC(=O)CN)C(=O)N1CCC[C@H]1C(=O)N[C@@H](CCCCN)C(=O)NCC(=O)N[C@H]1CSSC[C@@H](C(=O)N[C@@H](CCCCN)C(N)=O)NC(=O)[C@@H]2CCCN2C(=O)[C@H](CCCCN)NC(=O)[C@@H]2CCCN2C(=O)[C@@H]2CCCN2C(=O)[C@H](Cc2ccc(O)cc2)NC(=O)[C@H](CO)NC(=O)[C@H](CCCCN)NC(=O)[C@H]([C@@H](C)O)NC(=O)[C@H](Cc2c[nH]c3ccccc23)NC1=O` [GAPKGCWTKSYPPKPCK] yielded an MIC [5] of no less than 160 µM.
`CC(C)C[C@H](NC(=O)[C@H](CC(C)C)NC(=O)[C@H](CCCCN)NC(=O)CNC(=O)[C@H](CC(C)C)NC(=O)[C@H](CO)NC(=O)[C@H](CO)NC(=O)[C@H](CC(C)C)NC(=O)[C@H](CC(C)C)NC(=O)CN)C(N)=O` [GLLSSLGKLL] showed an MIC [1] of 25 µM (≈ 25 µg/mL), an MIC [2] of 25 µM (≈ 25 µg/mL) and an MIC [3] greater than 25 µM. For the same molecule, the MIC [4] was greater than 25 µM.
`CC(C)C[C@H](NC(=O)[C@H](CC(C)C)NC(=O)[C@H](CCCCN)NC(=O)[C@H](CC(C)C)NC(=O)[C@H](CCCCN)NC(=O)[C@H](CC(C)C)NC(=O)[C@H](CO)NC(=O)[C@H](CC(C)C)NC(=O)[C@H](CC(C)C)NC(=O)[C@H](CC(C)C)NC(=O)[C@H](CO)NC(=O)[C@H](CC(C)C)NC(=O)CN)C(N)=O` [GLSLLLSLKLKLL] showed an MIC [1] of 6.2 µM (≈ 8.74 µg/mL), an MIC [2] of 25 µM (≈ 35.2 µg/mL) and an MIC [3] greater than 25 µM. It also gave an MIC [4] greater than 25 µM.
`CC(C)C[C@H](NC(=O)[C@H](CC(C)C)NC(=O)[C@H](CCCCN)NC(=O)CNC(=O)[C@H](CC(C)C)NC(=O)[C@H](CO)NC(=O)[C@H](CO)NC(=O)[C@H](CC(C)C)NC(=O)CN)C(N)=O` [GLSSLGKLL] showed an MIC [1] of 25 µM (≈ 22.2 µg/mL), an MIC [2] of 25 µM (≈ 22.2 µg/mL) and an MIC [3] greater than 25 µM. The MIC [4] was greater than 25 µM.
`CC(C)[C@H](NC(=O)CNC(=O)[C@H](CCCN=C(N)N)NC(=O)[C@@H](NC(=O)[C@@H](NC(=O)[C@@H](NC(=O)[C@H](CCCN=C(N)N)NC(=O)CNC(=O)[C@H](Cc1c[nH]c2ccccc12)NC(=O)[C@H](CCCN=C(N)N)NC(=O)[C@@H](NC(=O)[C@@H](NC(=O)[C@@H](NC(=O)CN)C(C)C)C(C)C)C(C)C)C(C)C)C(C)C)C(C)C)C(=O)N[C@@H](CCCN=C(N)N)C(=O)N[C@@H](CCCN=C(N)N)C(N)=O` [GVVVRWGRVVVRGVRR] was tested, and the MIC (Salmonella typhimurium) was 4 µM (≈ 7.4 µg/mL), the MIC (Staphylococcus aureus) was 8 µM (≈ 14.8 µg/mL) and the MIC (Bacillus subtilis) was 4 µM (≈ 7.4 µg/mL). It also gave an MIC (Escherichia coli) of 8 µM (≈ 14.8 µg/mL).
With `CC(C)C[C@H](NC(=O)[C@H](CC(C)C)NC(=O)[C@H](Cc1cnc[nH]1)NC(=O)[C@H](Cc1cnc[nH]1)NC(=O)[C@H](CC(C)C)NC(=O)[C@H](Cc1cnc[nH]1)NC(=O)[C@H](CCCCN)NC(=O)[C@H](CC(C)C)NC(=O)[C@H](CC(C)C)NC(=O)[C@H](CCCCN)NC(=O)[C@H](CCCCN)NC(=O)[C@H](CC(C)C)NC(=O)[C@@H](N)CCCCN)C(=O)N[C@@H](Cc1cnc[nH]1)C(N)=O` [KLKKLLKHLHHLLH] the MIC (Streptococcus mutans) was 4.55 µM (≈ 8 µg/mL).
Work on `CC[C@H](C)[C@H](NC(=O)[C@H](CCCN=C(N)N)NC(=O)[C@H](CCC(N)=O)NC(=O)[C@@H](NC(=O)[C@@H](NC(=O)[C@H](CCCN=C(N)N)NC(=O)[C@@H](N)CCCCN)[C@@H](C)CC)C(C)C)C(=O)N[C@@H](CCCCN)C(=O)N[C@@H](CCCCN)C(=O)N[C@@H](Cc1ccccc1)C(=O)N[C@@H](CC(C)C)C(=O)N[C@@H](CCCN=C(N)N)C(=O)O` [KRIVQRIKKFLR] yielded an MIC (Staphylococcus aureus MR) of no less than 202 µM, an MIC [3] of 0.626 µM (≈ 0.992 µg/mL) and an MIC [6] of 2.5 µM (≈ 3.96 µg/mL). For the same molecule, the MIC (Acinetobacter baumannii) was 12.6 µM (≈ 20 µg/mL), the MIC [7] was 1.25 µM (≈ 1.98 µg/mL) and the MIC [8] was 1.25 µM (≈ 1.98 µg/mL). The MIC [9] was no less than 202 µM and the MIC [10] was no less than 50.5 µM.
For `CC[C@H](C)[C@H](NC(=O)[C@@H](NC(=O)[C@H](CO)NC(=O)[C@@H](NC(=O)[C@@H](NC(=O)[C@H](CCCCN)NC(=O)CNC(=O)[C@H](CC(C)C)NC(=O)[C@H](CC(C)C)NC(=O)CNC(=O)CNC(=O)[C@H](CC(C)C)NC(=O)[C@H](CC(C)C)NC(=O)CNC(=O)[C@H](CCCCN)NC(=O)[C@H](CO)NC(=O)[C@@H](NC(=O)[C@H](CCCCN)NC(=O)[C@H](Cc1c[nH]c2ccccc12)NC(=O)[C@H](Cc1c[nH]c2ccccc12)NC(=O)[C@H](CCCCN)NC(=O)[C@H](CCCCN)NC(=O)[C@@H](N)CC(C)C)[C@@H](C)O)C(C)C)[C@@H](C)O)C(C)C)C(=O)N[C@@H](CCCCN)C(=O)O` [LKKWWKTSKGLLGGLLGKVTSVIK], the MIC [1] was 5.66 µM (≈ 14.9 µg/mL), the MIC (Acinetobacter baumannii) was 2.83 µM and 1 µM and the MIC (Pseudomonas aeruginosa) was 2.83 µM and 2 µM and 5.66 µM. It also gave an MIC (Enterococcus faecium) of 1 µM (≈ 2.64 µg/mL), an MIC (Klebsiella pneumoniae) of 2.83 µM (≈ 7.47 µg/mL) and an MIC (Staphylococcus aureus) of 2 µM (≈ 5.28 µg/mL). The MIC (Escherichia coli) was 1.41 µM (≈ 3.74 µg/mL).
`CC[C@H](C)[C@H](NC(=O)[C@H](Cc1ccccc1)NC(=O)[C@H](Cc1cnc[nH]1)NC(=O)[C@@H](NC(=O)[C@H](Cc1ccccc1)NC(=O)[C@H](CCC(N)=O)NC(=O)[C@H](CCCCN)NC(=O)[C@@H](N)CC(C)C)C(C)C)C(=O)N[C@@H](Cc1cnc[nH]1)C(=O)N[C@@H](CCCN=C(N)N)C(=O)N[C@@H](Cc1ccccc1)C(N)=O` [LKQFVHFIHRF] gave an MIC (Streptococcus mutans) of 21.7 µM (≈ 32 µg/mL).
`NCCCC[C@H](NC(=O)[C@H](CCCN=C(N)N)NC(=O)[C@H](CCCN=C(N)N)NC(=O)[C@H](Cc1c[nH]c2ccccc12)NC(=O)[C@H](Cc1c[nH]c2ccccc12)NC(=O)[C@H](CCCN=C(N)N)NC(=O)[C@@H](N)CCCN=C(N)N)C(=O)O` [RRWWRRK] showed an MIC (Streptococcus mutans) of no less than 109 µM.
In the case of `NCCCC[C@H](NC(=O)[C@H](Cc1c[nH]c2ccccc12)NC(=O)[C@H](CCCN=C(N)N)NC(=O)[C@H](CCCCN)NC(=O)[C@H](CCCN=C(N)N)NC(=O)[C@H](Cc1c[nH]c2ccccc12)NC(=O)[C@@H](N)CCCN=C(N)N)C(=O)O` [RWRKRWK], the MIC (Streptococcus mutans) is reported as no less than 224 µM.
Work on `CC[C@H](C)[C@H](NC(=O)CNC(=O)CNC(=O)CNC(=O)[C@H](Cc1cnc[nH]1)NC(=O)[C@H](CC(C)C)NC(=O)[C@H](CC(C)C)NC(=O)[C@H](Cc1cnc[nH]1)NC(=O)[C@H](Cc1cnc[nH]1)NC(=O)[C@H](CC(C)C)NC(=O)[C@H](CCCCN)NC(=O)[C@H](CCCCN)NC(=O)[C@H](CC(C)C)NC(=O)[C@H](CC(C)C)NC(=O)[C@H](CCCN=C(N)N)NC(=O)[C@H](CCCN=C(N)N)NC(=O)[C@H](Cc1c[nH]c2ccccc12)NC(=O)[C@@H](N)CCCN=C(N)N)C(=O)N[C@@H](CCCCN)C(=O)N[C@@H](CCC(N)=O)C(=O)N[C@@H](CC(C)C)C(=O)N[C@@H](CC(C)C)C(=O)N[C@@H](Cc1cnc[nH]1)C(=O)N[C@@H](Cc1ccccc1)C(=O)N[C@@H](Cc1ccccc1)C(=O)N[C@@H](CCC(N)=O)C(=O)N[C@@H](CCCN=C(N)N)C(=O)N[C@@H](Cc1ccccc1)C(N)=O` [RWRRLLKKLHHLLHGGGIKQLLHFFQRF] yielded an MIC (Streptococcus mutans) of 4.52 µM (≈ 16 µg/mL).
In the case of `CC(C)C[C@H](NC(=O)[C@H](Cc1ccccc1)NC(=O)[C@@H]1CCCN1C(=O)[C@H](Cc1c[nH]c2ccccc12)NC(=O)[C@@H](N)Cc1c[nH]c2ccccc12)C(=O)N[C@@H](CCCN=C(N)N)C(=O)N[C@@H](CCCN=C(N)N)C(N)=O` [WWPFLRR], the MIC [11] is reported as 32 µM (≈ 33.9 µg/mL), the MIC [3] is reported as 64 µM and 128 µM and the MIC [12] is reported as 32 µM (≈ 33.9 µg/mL). The MIC [13] was no less than 64 µM, the MIC [7] was 64 µM and 128 µM and the MIC [8] was 64 µM (≈ 67.8 µg/mL). For the same molecule, the MIC [14] was greater than 128 µM, the MIC (Escherichia coli UB1005) was no less than 128 µM and the MIC [15] was no less than 64 µM.
